Reference: patent US12528801B2 (Givaudan SA, priority 2019, dated 2026)

Each compound was assayed against T1, hTRPM8 (Homo sapiens, UniProt Q7Z2W7) (assay: Assay on TRPM8 modulators: calcium imaging (Fluo-4, Flexstation) in HEK293 cell line stably expressing hTRPM8). Details: HEK293 cells stably expressing hTRPM8; calcium influx, Fluo-4, Flexstation 3; sigmoidal dose-response fit.
T1 construct: expressed in transfected cells
Format: cell-based
Experimental: A HEK293 cell line stably expressing hTRPM8 was generated according to Klein of at, (Chem. Senses 36: […], 2011) and receptor activation was monitored by calcium imaging in a Flexstation. For Ca-imaging assays of TRPM8 channel activation, cells were seeded on day 0 at a density of 12000 cells per well in Dulbecco's modified Eagle medium (DMEM) containing 9% foetal bovine serum in black, clear bottom 96-well plates that had been coated with 0.001% polyethyleneimine (molecular weight=60 000, Acros Organics). On day 2, agonists were evaluated via calcium imaging using Fluo-4. Briefly, growth medium was discarded, and the cells were incubated in the dark for 1 h at 37° C. in 50 μL loading buffer consisting of 2.7 μM Fluo-4 AM (Invitrogen) and […] probenecid (Sigma-Aldrich) in DMEM (without serum). After incubation, the plates were washed five times with 100 μL of assay buffer (in mM: 130 NaCl, 5 KCl, 10 HEPES, 2 CaCl2, and 10 glucose, pH7.4.) and further incubated in the dark at room temperature for 30 min. The cells were then washed five times with 100 μL assay buffer and then calcium influx to serial dilutions of inventive compounds were measured in a Flexstation 3 (Molecular Devices). Receptor activation was initiated following addition of 20 μl of a 10-fold concentrated ligand stock solution, which is also prepared in assay buffer. Fluorescence was continuously monitored for 15 seconds prior to ligand addition and for 105 seconds after ligand addition, for a total of 120 seconds. Maximal receptor activation in relation to solvent control and relative to 31.6 μM menthol is determined. Data from serial dilutions were processed with a KNIME workflow to fit a sigmoidal dose-response curve and to extrapolate […].

T1 sequence (Q7Z2W7 whole entry): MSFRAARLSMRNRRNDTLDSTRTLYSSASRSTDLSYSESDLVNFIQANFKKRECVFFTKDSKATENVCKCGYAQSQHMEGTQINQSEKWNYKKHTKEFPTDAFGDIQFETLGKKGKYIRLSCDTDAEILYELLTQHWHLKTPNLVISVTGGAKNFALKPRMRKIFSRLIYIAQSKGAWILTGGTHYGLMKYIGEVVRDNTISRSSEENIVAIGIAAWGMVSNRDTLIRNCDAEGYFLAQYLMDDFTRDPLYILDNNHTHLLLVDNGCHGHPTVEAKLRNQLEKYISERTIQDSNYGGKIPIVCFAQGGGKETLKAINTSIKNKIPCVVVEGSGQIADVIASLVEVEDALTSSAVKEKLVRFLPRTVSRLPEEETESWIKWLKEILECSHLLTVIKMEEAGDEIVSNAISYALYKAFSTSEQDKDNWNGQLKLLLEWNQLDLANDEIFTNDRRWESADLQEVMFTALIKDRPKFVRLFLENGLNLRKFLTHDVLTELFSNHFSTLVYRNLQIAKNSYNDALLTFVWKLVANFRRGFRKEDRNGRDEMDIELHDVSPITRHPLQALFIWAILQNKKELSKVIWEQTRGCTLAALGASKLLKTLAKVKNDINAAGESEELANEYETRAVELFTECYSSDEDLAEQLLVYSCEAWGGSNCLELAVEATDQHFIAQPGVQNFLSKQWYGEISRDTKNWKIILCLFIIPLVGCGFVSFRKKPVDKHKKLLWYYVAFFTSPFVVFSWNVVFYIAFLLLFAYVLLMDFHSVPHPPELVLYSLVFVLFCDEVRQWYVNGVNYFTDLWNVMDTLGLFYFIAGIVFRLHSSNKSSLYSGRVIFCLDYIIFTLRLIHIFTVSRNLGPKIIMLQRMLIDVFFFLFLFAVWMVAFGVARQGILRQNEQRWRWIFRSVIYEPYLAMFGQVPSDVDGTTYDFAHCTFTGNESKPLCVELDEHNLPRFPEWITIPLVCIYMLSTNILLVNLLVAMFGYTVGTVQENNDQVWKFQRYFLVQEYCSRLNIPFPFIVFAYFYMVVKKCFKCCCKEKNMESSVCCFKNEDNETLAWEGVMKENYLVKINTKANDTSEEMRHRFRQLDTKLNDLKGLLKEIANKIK

EC50, < 50 nM:
CSC(C)C(=O)N1CCCCC1c1ncc(-c2ccc(CN)cc2)[nH]1 (stereo not shown) [Compound 71, 1-(2-(5-(4-(aminomethyl)phenyl)-1H-imidazol-2-yl)piperidin-1-yl)-2-(methylthio)propan-1-one]
CSC(C)C(=O)N1CCCCC1c1ncc(-c2ccc(C(C)=O)cc2)[nH]1 (stereo not shown) [Compound 74, 1-(2-(5-(4-acetylphenyl)-1H-imidazol-2-yl)piperidin-1-yl)-2-(methylthio)propan--one]
CSC(C)C(=O)N1CCCCC1c1ncc(-c2ccc(N)cc2)[nH]1 (stereo not shown) [Compound 75, 1-(2-(5-(4-aminophenyl)-1H-imidazol-2-yl)piperidin-1-yl)-2-(methylthio)propan-1-one]
CSC(C)C(=O)N1CCCCC1c1ncc(-c2ccc(Cl)c(F)c2)[nH]1 (stereo not shown) [Compound 76, 1-(2-(5-(4-chloro-3-fluorophenyl)-1H-imidazol-2-yl)piperidin-1-yl)-2-(methylthio)propan-1-one]
CSC(C)C(=O)N1CCCCC1c1ncc(-c2ccc(Cl)cc2)[nH]1 (stereo not shown) [Compound 77, 1-(2-(5-(4-chlorophenyl)-1H-imidazol-2-yl)piperidin-1-yl)-2-(methyltbio)propan-1-one]
CCc1ccc(-c2cnc(C3CCCCN3C(=O)C(C)SC)[nH]2)cc1 (stereo not shown) [Compound 78, 1-(2-(5-(4-ethylphenyl)-1H-imidazol-2-yl)piperidin-1-yl)-2-(methylthio)propan-1-one]
CSC(C)C(=O)N1CCCCC1c1nnc(-c2ccc(F)cc2)[nH]1 (stereo not shown) [Compound 79, 1-(2-(5-(4-fluorophenyl)-4H-1,2,4-triazol-3-yl)piperidin-1-yl)-2-(methylthio)propan-1-one]
COc1ccc(-c2cnc(C3CCCCN3C(=O)C(C)SC)[nH]2)c(C)c1 (stereo not shown) [Compound 80, 1-(2-(5-(4-methoxy-2-methylphenyl)-1H-imidazol-2-yl)piperidin-1-yl)-2-(methylthio)propan-1-one]
COc1ccc(-c2cnc(C3CCCCN3C(=O)C(C)SC)[nH]2)cc1 (stereo not shown) [Compound 81, 1-(2-(5-(4-methoxyphenyl)-1H-imidazol-2-yl)piperidin-1-yl)-2-(methylthio)propan-1-one]
CSC(C)C(=O)N1CCCCC1c1ncc(-c2ccc3c(c2)OCO3)[nH]1 (stereo not shown) [Compound 85, 1-(2-(5-(benzo[d][1,3]dioxol-5-yl)-1H-imidazol-2-yl)piperidin-1-yl)-2-(methylthio)propan-1-one]
C=CCSC(C)C(=O)N1CCCCC1c1ncc(-c2ccc(C)cc2)[nH]1 (stereo not shown) [Compound 92, 2-(allylthio)-1-(2-(5-(p-tolyl)-1H-imidazol-2-yl)piperidin-1-yl)propan-1-one]
Cc1ccc(-c2cnc(C3CCCCN3C(=O)C(C)c3ccoc3)[nH]2)cc1 (stereo not shown) [Compound 99, 2-(furan-3-yl)-1-(2-(5-(p-tolyl)-1H-imidazol-2-yl)piperidin-1-yl)propan-1-one]
CSC(C)C(=O)N1CCCCC1c1nnn(-c2ccc(C)cc2)n1 (stereo not shown) [Compound 104, 2-(methylthio)-1-(2-(2-(p-toly)-2H-tetrazol-5-yl)piperidin-1-yl)propan-1-one]

EC50, 300 to 1000 nM:
CSC(C)C(=O)N1CCCCC1c1ncc(-c2ccc(CO)cc2)[nH]1 (stereo not shown) [Compound 73, 1-(2-(5-(4-(hydroxymethyl)phenyl)-1H-imidazol-2-yl)piperidin-1-yl)-2-(methylthio)propan-1-one]
CSc1cc(C)c(-c2cnc(C3CCCCN3C(=O)C(C)SC)[nH]2)cn1 (stereo not shown) [Compound 82, 1-(2-(5-(4-methyl-6-(methylthio)pyridin-3-yl)-1H-imidazol-2-yl)piperidin-1-yl)-2-(methylthio)propan-1-one]
CSC(C)C(=O)N1CCCCC1c1ncc(Br)[nH]1 (stereo not shown) [Compound 88, 1-(2-(5-bromo-1H-imidazol-2-yl)piperidin-1-yl)-2-(methylthio)propan-1-one]
CSC(C)C(=O)N1CCCCC1c1ncc(-c2ccccc2C#N)[nH]1 (stereo not shown) [Compound 89, 2-(2-(1-(2-(methylthio)propanoyl)piperidin-2-yl)-1H-imidazol-5-yl)benzonitrile]
C[C@H](C(=O)N1CCCCC1c1nc(-c2ccccc2)c[nH]1)N(C)C (stereo partly drawn) [Compound 94, (2R)-2-(dimethylamino)-1-(2-(4-phenyl-1H-imidazol-2-yl)piperidin-1-yl)propan-1-one]
CSC(C)C(=O)N1CCCCC1c1nc(-c2ccccc2)no1 (stereo not shown) [Compound 105, 2-(methylthio)-1-(2-(3-phenyl-1,2,4-oxadiazol-5-yl)piperidin-1-yl)propan-1-one]

EC50, 1000 to 35000 nM:
COc1nscc1-c1cnc(C2CCCCN2C(=O)C(C)SC)[nH]1 (stereo not shown) [Compound 67, 1-(2-(5-(3-methoxyisothiazol-4-yl)-1H-imidazol-2-yl)piperidin-1-yl)-2-(methylthio)propan-1-one]
CNCc1ccc(-c2cnc(C3CCCCN3C(=O)C(C)SC)[nH]2)cc1 (stereo not shown) [Compound 69, 1-(2-(5-(4-((methylamino)methyl)phenyl)-1H-imidazol-2-yl)piperidin-1-yl)-2-(methylthio)propan-1-one]
CSC(C)C(=O)N1CCCCC1c1ncc(Cc2ccccc2)[nH]1 (stereo not shown) [Compound 87, 1-(2-(5-benzyl-1H-imidazol-2-yl)piperidin-1-yl)-2-(methylthio)propan-1-one]
CCC(C(=O)N1CCCCC1c1nc(-c2ccccc2)c[nH]1)N(C)C (stereo not shown) [Compound 93, 2-(dimethylamino)-1-(2-(4-phenyl-1H-imidazol-2-yl)piperidin-1-yl)butan-1-one]
O=C(Cc1ccco1)N1CCCCC1c1nc(-c2ccccc2)c[nH]1 (stereo not shown) [Compound 96, 2-(furan-2-yl)-1-(2-(4-phenyl-1H-imidazol-2-yl)piperidin-1-yl)ethan-1-one]
CS(=O)(=O)CC(=O)N1CCCCC1c1nc(-c2ccccc2)c[nH]1 (stereo not shown) [Compound 102, 2-(methylsulfonyl)-1-(2-(4-phenyl-1H-imidazol-2-yl)piperidin-1-yl)ethan-1-one]
CC(C(=O)N1CCCCC1c1nc(-c2ccccc2)c[nH]1)S(C)(=O)=O (stereo not shown) [Compound 103, 2-(methylsulfonyl)-1-(2-(4-phenyl-1H-imidazol-2-yl)piperidin-1-yl)propan-1-one]

EC50, 50 to 300 nM:
COc1cccc(-c2cnc(C3CCCCN3C(=O)C(C)SC)[nH]2)c1 (stereo not shown) [Compound 68, 1-(2-(5-(3-methoxyphenyl)-1H-imidazol-2-yl)piperidin-1-yl)-2-(methylthio)propan-1-one]
COCCc1ccc(-c2cnc(C3CCCCN3C(=O)C(C)SC)[nH]2)cc1 (stereo not shown) [Compound 70, 1-(2-(5-(4-(2-methoxyethyl)phenyl)-1H-imidazol-2-yl)piperidin-1-yl)-2-(methylthio)propan-1-one]
CSC(C)C(=O)N1CCCCC1c1ncc(-c2ccc(N(C)C)cc2)[nH]1 (stereo not shown) [Compound 72, 1-(2-(5-(4-(dimethylamino)phenyl)-1H-imidazol-2-yl)piperidin-1-yl)-2-(methylthio)propan-1-one]
COCc1cc(-c2cnc(C3CCCCN3C(=O)C(C)SC)[nH]2)cs1 (stereo not shown) [Compound 83, 1-(2-(5-(5-(methoxymethyl)thiophen-3-yl)-1H-imidazol-2-yl)piperidin-1-yl)-2-(methylthio)propan-1-one]
COc1ccc(-c2cnc(C3CCCCN3C(=O)C(C)SC)[nH]2)cn1 (stereo not shown) [Compound 84, 1-(2-(5-(6-methoxypyridin-3-yl)-1H-imidazol-2-yl)piperidin-1-yl)-2-(methylthio)propan-1-one]
CCC(=O)N1CCCCC1c1ncc(-c2ccc(C)cc2)[nH]1 (stereo not shown) [Compound 86, 1-(2-(5-(p-tolyl)-1H-imidazol-2-yl)piperidin-1-yl)propan-1-one]
Cc1ccc(C(C)C(=O)N2CCCCC2c2nc(-c3ccccc3)c[nH]2)o1 (stereo not shown) [Compound 91, 2-(5-methylfuran-2-yl)-1-(2-(4-phenyl-1H-imidazol-2-yl)piperidin-1-yl)propan-1-one]
CC(C(=O)N1CCCCC1c1nc(-c2ccccc2)c[nH]1)c1ccco1 (stereo not shown) [Compound 97, 2-(furan-2-yl)-1-(2-(4-phenyl-1H-imidazol-2-yl)piperidin-1-yl)propan-1-one]
O=C(Cc1ccoc1)N1CCCCC1c1nc(-c2ccccc2)c[nH]1 (stereo not shown) [Compound 98]
CNCC(=O)Nc1ccc(-c2cnc(C3CCCCN3C(=O)C(C)SC)[nH]2)cc1 (stereo not shown) [Compound 100, 2-(methylamino)-N-(4-(2-(1-(2-(methylthio)propanoyl)piperidin-2-yl)-1H-imidazol-5-yl)phenyl)acetamide]
Cc1ccc(-c2cnc(C3CCCCN3C(=O)C(C)[S+](C)[O-])[nH]2)cc1 (stereo not shown) [Compound 101, 2-(methylsulfinyl)-1-(2-(5-(p-tolyl)-1H-imidazol-2-yl)piperidin-1-yl)propan-1-one]
